The values below are quoted from earlier work in patent publication US12678402B2 (Nasus Pharma Ltd., priority 2020, dated 2026).

Where two headings read alike, the source gives them in different places.

Usually Tmax stands for the time at which the peak concentration occurs.

One data set has as its system nasal epithelia. Particulars: in vitro; dissolves in nasal fluid.
The conditions of data set [1]: IN 1 mg up to 12 mg, different indications and formulations.

For `CNC[C@H](O)c1ccc(O)c(O)c1` [Epinephrine], in the data set on nasal epithelia, the “absorption after deposition of the powder in the nasal cavity” value was “rapidly absorbed through the nasal epithelia”. The “Cbaseline Mean (±SD)” value reads like this: (0.3 mg IM) 35 ± 23 pg/mL; (5 mg IN) 8 ± 6 pg/mL. The Tmax (0.3 mg IM) was 1.12 ± 0.717 h. For the same molecule, for the setting “IN epinephrine in saline formulation, healthy adults”, the adverse events observed entry is “transient tremor was observed in one subject and palpitation in two subjects”. Moreover, the “heart rate and blood pressure changes” value (IN epinephrine in saline formulation, healthy adults, at Tmax) was “Increase in heart rate, and diastolic and systolic blood pressures occurred at Tmax. in most subjects”. Further, the serious adverse effects entry (after IN epinephrine administration, healthy adults) is “No serious adverse effects were observed”. For the same molecule, in data set [1], the serious adverse events result is listed as “no serious adverse events”.
